Data published in ChEMBL document CHEMBL5038625, “Application of the dual-tail approach for the design and synthesis of novel Thiopyrimidine-Benzenesulfonamide hybrids as selective carbonic anhydrase inhibitors” (Eur J Med Chem, 2022).

How the values were obtained:
HCT-15 = experiment: Antiproliferative activity against human HCT-15 cells assessed as cell growth inhibition at 10 uM incubated for 24 hrs by sulforhodamine B assay; type: functional; conditions: read-out: GI
HL-60 = experiment: Antiproliferative activity against human HL-60 cells assessed as cell growth inhibition at 10 uM incubated for 24 hrs by sulforhodamine B assay; type: functional; conditions: read-out: GI
K562 = experiment: Antiproliferative activity against human K562 cells assessed as cell growth inhibition at 10 uM incubated for 24 hrs by sulforhodamine B assay; type: functional; conditions: read-out: GI
MDA-MB-231 = experiment: Antiproliferative activity against human MDA-MB-231 cells assessed as cell growth inhibition at 10 uM incubated for 24 hrs by sulforhodamine B assay; type: functional; conditions: read-out: GI
EKVX = experiment: Antiproliferative activity against human EKVX cells assessed as cell growth inhibition at 10 uM incubated for 24 hrs by sulforhodamine B assay; type: functional; conditions: read-out: GI
Carbonic anhydrase 9 = Carbonic anhydrase 9 (Homo sapiens, UniProt Q16790); experiment: Inhibition of human CA9 preincubated for 15 mins by phenol red dye based stopped flow CO2 hydration assay
HCT-116 = experiment: Antiproliferative activity against human HCT-116 cells assessed as cell growth inhibition at 10 uM incubated for 24 hrs by sulforhodamine B assay; type: functional; conditions: read-out: GI
CCRF-CEM = experiment: Antiproliferative activity against human CCRF-CEM cells assessed as cell growth inhibition at 10 uM incubated for 24 hrs by sulforhodamine B assay; type: functional; conditions: read-out: GI
RPMI-8226 = experiment: Antiproliferative activity against human RPMI-8226 cells assessed as cell growth inhibition at 10 uM incubated for 24 hrs by sulforhodamine B assay; type: functional; conditions: read-out: GI
HOP-92 = experiment: Antiproliferative activity against human HOP-92 cells assessed as cell growth inhibition at 10 uM incubated for 24 hrs by sulforhodamine B assay; type: functional; conditions: read-out: GI
OVCAR-8 = experiment: Antiproliferative activity against human OVCAR-8 cells assessed as cell growth inhibition at 10 uM incubated for 24 hrs by sulforhodamine B assay; type: functional; conditions: read-out: GI
MOLT-4 = experiment: Antiproliferative activity against human MOLT-4 cells assessed as cell growth inhibition at 10 uM incubated for 24 hrs by sulforhodamine B assay; type: functional; conditions: read-out: GI
NCI-H226 = experiment: Antiproliferative activity against human NCI-H226 cells assessed as cell growth inhibition at 10 uM incubated for 24 hrs by sulforhodamine B assay; type: functional; conditions: read-out: GI
U-251 = experiment: Antiproliferative activity against human U-251 cells assessed as cell growth inhibition at 10 uM incubated for 24 hrs by sulforhodamine B assay; type: functional; conditions: read-out: GI
MCF7 = experiment: Antiproliferative activity against human MCF7 cells assessed as cell growth inhibition at 10 uM incubated for 24 hrs by sulforhodamine B assay; type: functional; conditions: read-out: GI
SN12C = experiment: Antiproliferative activity against human SN12C cells assessed as cell growth inhibition at 10 uM incubated for 24 hrs by sulforhodamine B assay; type: functional; conditions: read-out: GI
UO-31 = experiment: Antiproliferative activity against human UO-31 cells assessed as cell growth inhibition at 10 uM incubated for 24 hrs by sulforhodamine B assay; type: functional; conditions: read-out: GI
NCI/ADR-RES = experiment: Antiproliferative activity against human NCI-ADR-RES cells assessed as cell growth inhibition at 10 uM incubated for 24 hrs by sulforhodamine B assay; type: functional; conditions: read-out: GI
SR = experiment: Antiproliferative activity against human SR cells assessed as cell growth inhibition at 10 uM incubated for 24 hrs by sulforhodamine B assay; type: functional; conditions: read-out: GI
SF-539 = experiment: Antiproliferative activity against human SF-539 cells assessed as cell growth inhibition at 10 uM incubated for 24 hrs by sulforhodamine B assay; type: functional; conditions: read-out: GI
SK-MEL-5 = experiment: Antiproliferative activity against human SK-MEL-5 cells assessed as cell growth inhibition at 10 uM incubated for 24 hrs by sulforhodamine B assay; type: functional; conditions: read-out: GI
PC-3 = experiment: Antiproliferative activity against human PC-3 cells assessed as cell growth inhibition at 10 uM incubated for 24 hrs by sulforhodamine B assay; type: functional; conditions: read-out: GI
A549 = experiment: Antiproliferative activity against human A549 cells assessed as cell growth inhibition at 10 uM incubated for 24 hrs by sulforhodamine B assay; type: functional; conditions: read-out: GI
OVCAR-4 = experiment: Antiproliferative activity against human OVCAR-4 cells assessed as cell growth inhibition at 10 uM incubated for 24 hrs by sulforhodamine B assay; type: functional; conditions: read-out: GI
A498 = experiment: Antiproliferative activity against human A498 cells assessed as cell growth inhibition at 10 uM incubated for 24 hrs by sulforhodamine B assay; type: functional; conditions: read-out: GI
SF-295 = experiment: Antiproliferative activity against human SF-295 cells assessed as cell growth inhibition at 10 uM incubated for 24 hrs by sulforhodamine B assay; type: functional; conditions: read-out: GI
CAKI-1 = experiment: Antiproliferative activity against human CAKI-1 cells assessed as cell growth inhibition at 10 uM incubated for 24 hrs by sulforhodamine B assay; type: functional; conditions: read-out: GI
RXF 393 = experiment: Antiproliferative activity against human RXF 393 cells assessed as cell growth inhibition at 10 uM incubated for 24 hrs by sulforhodamine B assay; type: functional; conditions: read-out: GI
T47D = experiment: Antiproliferative activity against human T47D cells assessed as cell growth inhibition at 10 uM incubated for 24 hrs by sulforhodamine B assay; type: functional; conditions: read-out: GI
ACHN = experiment: Antiproliferative activity against human ACHN cells assessed as cell growth inhibition at 10 uM incubated for 24 hrs by sulforhodamine B assay; type: functional; conditions: read-out: GI
KM12 = experiment: Antiproliferative activity against human KM12 cells assessed as cell growth inhibition at 10 uM incubated for 24 hrs by sulforhodamine B assay; type: functional; conditions: read-out: GI
Hs-578T = experiment: Antiproliferative activity against human HS-578T cells assessed as cell growth inhibition at 10 uM incubated for 24 hrs by sulforhodamine B assay; type: functional; conditions: read-out: GI
LOX IMVI = experiment: Antiproliferative activity against human LOX IMVI cells assessed as cell growth inhibition at 10 uM incubated for 24 hrs by sulforhodamine B assay; type: functional; conditions: read-out: GI
786-0 = experiment: Antiproliferative activity against human 786-0 cells assessed as cell growth inhibition at 10 uM incubated for 24 hrs by sulforhodamine B assay; type: functional; conditions: read-out: GI
SF-268 = experiment: Antiproliferative activity against human SF-268 cells assessed as cell growth inhibition at 10 uM incubated for 24 hrs by sulforhodamine B assay; type: functional; conditions: read-out: GI
MDA-MB-468 = experiment: Antiproliferative activity against human MDA-MB-468 cells assessed as cell growth inhibition at 10 uM incubated for 24 hrs by sulforhodamine B assay; type: functional; conditions: read-out: GI

`CC(C)c1nc(SCC(=O)c2ccccc2)nc(Nc2cccc(S(N)(=O)=O)c2)c1C#N` gave an inhibition of growth at 10 µM (HCT-15) of 12.1%, an inhibition of growth at 10 µM (HL-60) of 25.2% and an inhibition of growth at 10 µM (K562) of 26.7%. It also gave an inhibition of growth at 10 µM (MDA-MB-231) of 14.9%, an inhibition of growth at 10 µM (EKVX) of 5.72% and a Ki (Carbonic anhydrase 9) of 0.0923 µM. For the same compound, the inhibition of growth at 10 µM (HCT-116) was 5.73%, the inhibition of growth at 10 µM (CCRF-CEM) was 13.8% and the inhibition of growth at 10 µM (RPMI-8226) was 17.9%. It also gave an inhibition of growth at 10 µM (HOP-92) of 61%, an inhibition of growth at 10 µM (OVCAR-8) of 5% and an inhibition of growth at 10 µM (MOLT-4) of 28.2%. For the same compound, the inhibition of growth at 10 µM (NCI-H226) was 10%, the inhibition of growth at 10 µM (U-251) was 5.45% and the inhibition of growth at 10 µM (MCF7) was 12.6%. It also gave an inhibition of growth at 10 µM (SN12C) of 8.21%, an inhibition of growth at 10 µM (UO-31) of 27.4% and an inhibition of growth at 10 µM (NCI/ADR-RES) of 5.69%. The inhibition of growth at 10 µM (SR) was 19%, the inhibition of growth at 10 µM (SF-539) was 12.2% and the inhibition of growth at 10 µM (SK-MEL-5) was 7.01%. It also gave an inhibition of growth at 10 µM (PC-3) of 27.3%, an inhibition of growth at 10 µM (A549) of 5.5% and an inhibition of growth at 10 µM (OVCAR-4) of 9.85%. For the same compound, the inhibition of growth at 10 µM (A498) was 10.7%, the inhibition of growth at 10 µM (SF-295) was 5.43% and the inhibition of growth at 10 µM (CAKI-1) was 10.8%. It also gave an inhibition of growth at 10 µM (RXF 393) of 17.3% and an inhibition of growth at 10 µM (T47D) of 17.9%.
In the case of `COc1ccc(C(=O)CSc2nc(Nc3cccc(S(N)(=O)=O)c3)c(C#N)c(-c3cc(OC)ccc3OC)n2)cc1`, the inhibition of growth at 10 µM (HCT-15) is reported as 10.6%, the inhibition of growth at 10 µM (ACHN) is reported as 5.69% and the inhibition of growth at 10 µM (K562) is reported as 10.7%. It also gave an inhibition of growth at 10 µM (MDA-MB-231) of 5.72%, an inhibition of growth at 10 µM (EKVX) of 6.35% and an inhibition of growth at 10 µM (KM12) of 5.79%. The Ki (Carbonic anhydrase 9) was 0.007 µM, the inhibition of growth at 10 µM (Hs-578T) was 10.4% and the inhibition of growth at 10 µM (RPMI-8226) was 12.6%. For the same compound, the inhibition of growth at 10 µM (MOLT-4) was 18.2%, the inhibition of growth at 10 µM (U-251) was 9.1% and the inhibition of growth at 10 µM (MCF7) was 11.8%. For the same compound, the inhibition of growth at 10 µM (LOX IMVI) was 11.3%, the inhibition of growth at 10 µM (UO-31) was 29.2% and the inhibition of growth at 10 µM (SR) was 12.7%. For the same compound, the inhibition of growth at 10 µM (SF-539) was 11.2%, the inhibition of growth at 10 µM (786-0) was 7.02% and the inhibition of growth at 10 µM (SF-268) was 5.3%. It also gave an inhibition of growth at 10 µM (PC-3) of 8.57%, an inhibition of growth at 10 µM (OVCAR-4) of 7.16% and an inhibition of growth at 10 µM (MDA-MB-468) of 8.93%. The inhibition of growth at 10 µM (A498) was 23.9%, the inhibition of growth at 10 µM (CAKI-1) was 29.2% and the inhibition of growth at 10 µM (RXF 393) was 11.7%. It also gave an inhibition of growth at 10 µM (T47D) of 15.2%.
